In US20120252748A1, “METHODS AND COMPOSITIONS FOR DETERMINING THE RESPONSIVENESS OF CANCER THERAPEUTICS” (New York University, priority 2011, published 2012):
pIC50: −log10 of the molar value. Entries after “also recorded” stand apart in the source; their conditions may differ. Read-outs that look alike come from different tables or passages of the source.

Tests used:
[1] = tested on: MCF-7 cells forced to express ACSL4; assay: Tamoxifen sensitivity of MCF-7 cells forced to express ACSL4; assay type: cell-based, human; details: forced ACSL4 expression in MCF-7, FIG. 16
Protocol: (§1) An analysis was performed on breast cancer cell lines that are hormone receptor positive and positive for ACSL4 expression. […] In the present study, estrogen responsive MCF-7 cells, which are ACSL4-negative, were forced to express […]. […] The results were confirmed using conditional and stable transfection techniques.

ACSL5 = target: T1, ACSL5 (Rattus norvegicus, UniProt O88813); details: Van Horn et al. 2005; cited from earlier work
T1 sequence (O88813 1-683): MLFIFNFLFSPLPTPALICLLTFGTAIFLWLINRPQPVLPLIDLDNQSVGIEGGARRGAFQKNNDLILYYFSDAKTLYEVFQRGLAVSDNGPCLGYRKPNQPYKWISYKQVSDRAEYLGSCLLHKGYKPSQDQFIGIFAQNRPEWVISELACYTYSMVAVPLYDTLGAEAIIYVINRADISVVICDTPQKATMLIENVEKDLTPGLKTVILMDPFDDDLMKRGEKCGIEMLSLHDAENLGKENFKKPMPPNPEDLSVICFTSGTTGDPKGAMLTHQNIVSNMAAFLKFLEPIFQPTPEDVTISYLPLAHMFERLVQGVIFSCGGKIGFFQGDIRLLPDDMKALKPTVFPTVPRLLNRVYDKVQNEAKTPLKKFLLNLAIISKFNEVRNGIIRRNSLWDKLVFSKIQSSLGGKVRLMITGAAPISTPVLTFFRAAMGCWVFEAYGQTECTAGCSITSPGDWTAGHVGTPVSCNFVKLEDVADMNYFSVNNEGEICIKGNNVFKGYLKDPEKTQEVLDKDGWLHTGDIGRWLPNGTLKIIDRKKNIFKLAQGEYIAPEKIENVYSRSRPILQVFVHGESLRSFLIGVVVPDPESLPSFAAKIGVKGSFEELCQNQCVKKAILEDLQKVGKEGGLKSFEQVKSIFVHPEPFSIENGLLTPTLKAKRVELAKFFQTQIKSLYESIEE

MDA-MB-231 cells = assay: Effect of triacsin C on relative cell number of MDA-MB-231 control and ACSL4 knockdown cells; assay type: cell-based, human; details: for pIC50: FIG. 7C, read-out: half-maximal inhibitory concentration
Protocol: Relative differences in cell number were quantitated using the Cell Titer 96 AQueous Reagent purchased from Promega (Madison, Wis.). Protocols used were as described by the manufacturer.
MDA-MB-231 cells were treated for 48 hours with either a control or ACSL4-specific siRNA. The siRNA was a SmartPool siRNA obtained from Dharmacon, consisting of 4 separate siRNAs.
Next, the effect of triacsin C treatment on MDA-MB-231 control and knockdown cells were compared. […] Mashima et al., Cancer Sci., 100: 1556-1562 (2009).

ACSL3 = ACSL3 (Rattus norvegicus, UniProt Q63151); details: Van Horn et al. 2005; cited from earlier work
ACSL3, sequence (Q63151 whole entry): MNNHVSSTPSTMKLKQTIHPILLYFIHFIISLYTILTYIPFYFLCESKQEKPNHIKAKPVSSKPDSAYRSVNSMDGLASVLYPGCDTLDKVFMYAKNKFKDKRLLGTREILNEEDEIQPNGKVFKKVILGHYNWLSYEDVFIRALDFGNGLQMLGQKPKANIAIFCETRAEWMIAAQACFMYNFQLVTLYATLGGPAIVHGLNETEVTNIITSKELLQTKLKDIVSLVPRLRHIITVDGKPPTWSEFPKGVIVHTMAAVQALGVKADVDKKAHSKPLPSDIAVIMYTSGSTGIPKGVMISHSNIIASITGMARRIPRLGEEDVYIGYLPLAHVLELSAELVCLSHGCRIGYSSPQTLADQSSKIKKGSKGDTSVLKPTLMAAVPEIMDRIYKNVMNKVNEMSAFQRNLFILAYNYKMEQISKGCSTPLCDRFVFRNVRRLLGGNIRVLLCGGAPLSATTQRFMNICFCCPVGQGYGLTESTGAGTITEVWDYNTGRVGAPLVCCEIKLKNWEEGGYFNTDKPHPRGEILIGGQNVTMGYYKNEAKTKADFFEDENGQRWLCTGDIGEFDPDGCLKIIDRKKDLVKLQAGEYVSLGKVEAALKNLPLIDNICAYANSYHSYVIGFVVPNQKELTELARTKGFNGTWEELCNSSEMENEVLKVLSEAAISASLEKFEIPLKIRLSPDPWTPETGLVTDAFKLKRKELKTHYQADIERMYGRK

[2] = tested on: a variety of cancer cells; details: Mashima et al. 2009; cited from earlier work
ACSL6 = details: Van Horn et al. 2005; cited from earlier work
ACSL4 = ACSL4 (Rattus norvegicus, UniProt O35547); details: cited from earlier work
ACSL4, sequence (O35547 whole entry): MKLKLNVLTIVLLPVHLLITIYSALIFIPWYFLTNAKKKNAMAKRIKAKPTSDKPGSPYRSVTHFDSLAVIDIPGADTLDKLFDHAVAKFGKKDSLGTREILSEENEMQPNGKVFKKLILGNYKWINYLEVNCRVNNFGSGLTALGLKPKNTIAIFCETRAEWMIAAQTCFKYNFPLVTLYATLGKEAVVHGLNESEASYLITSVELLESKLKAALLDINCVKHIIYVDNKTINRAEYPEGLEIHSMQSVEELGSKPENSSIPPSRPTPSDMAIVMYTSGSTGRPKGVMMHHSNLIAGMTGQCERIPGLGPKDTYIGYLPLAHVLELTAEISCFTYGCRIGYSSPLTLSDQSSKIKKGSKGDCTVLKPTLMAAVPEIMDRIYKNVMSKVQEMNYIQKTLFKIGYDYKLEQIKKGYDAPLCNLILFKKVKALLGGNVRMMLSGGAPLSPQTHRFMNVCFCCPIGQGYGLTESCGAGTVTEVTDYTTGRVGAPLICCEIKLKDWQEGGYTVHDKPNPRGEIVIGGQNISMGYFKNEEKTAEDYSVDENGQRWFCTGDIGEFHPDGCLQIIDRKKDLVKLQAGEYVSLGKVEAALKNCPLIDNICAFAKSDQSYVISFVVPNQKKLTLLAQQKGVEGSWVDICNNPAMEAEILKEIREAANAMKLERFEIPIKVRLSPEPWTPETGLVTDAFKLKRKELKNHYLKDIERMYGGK

ACSL1 = target: T2, ACSL1 (Rattus norvegicus, UniProt P18163); details: cited from earlier work
T2 sequence (P18163 1-699): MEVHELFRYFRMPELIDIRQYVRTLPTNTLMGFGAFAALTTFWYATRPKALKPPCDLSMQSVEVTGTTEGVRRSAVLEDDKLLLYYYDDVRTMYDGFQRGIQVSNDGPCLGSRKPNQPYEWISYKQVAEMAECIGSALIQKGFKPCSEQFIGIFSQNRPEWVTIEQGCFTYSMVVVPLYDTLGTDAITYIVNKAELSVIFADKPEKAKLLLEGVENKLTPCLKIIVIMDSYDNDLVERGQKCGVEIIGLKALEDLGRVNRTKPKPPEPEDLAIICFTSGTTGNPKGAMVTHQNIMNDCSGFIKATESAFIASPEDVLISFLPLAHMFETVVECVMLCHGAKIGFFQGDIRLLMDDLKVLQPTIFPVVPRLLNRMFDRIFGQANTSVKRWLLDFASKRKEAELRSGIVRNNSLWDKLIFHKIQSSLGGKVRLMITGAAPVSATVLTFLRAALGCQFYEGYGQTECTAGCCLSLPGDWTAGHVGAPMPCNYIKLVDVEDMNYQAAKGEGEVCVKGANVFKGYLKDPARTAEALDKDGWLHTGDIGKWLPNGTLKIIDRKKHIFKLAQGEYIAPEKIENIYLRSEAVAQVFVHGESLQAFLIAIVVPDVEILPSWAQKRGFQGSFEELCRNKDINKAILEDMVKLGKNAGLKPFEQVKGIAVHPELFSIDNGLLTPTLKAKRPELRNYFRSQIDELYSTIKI

[3] = tested on: MCF-7 cells genetically manipulated to express ACSL4; assay: Growth response to estrogen, MCF-7 cells genetically manipulated to express ACSL4; assay type: cell-based, human; details: MCF-7 expressing ACSL4, versus estrogen-free conditions, FIG. 6B
Protocol: (§2) Additionally, a study was performed in which cell growth in the presence of estrogen of the estrogen dependent MCF-7 cells, which are ACSL4 negative, were compared to modified MCF-7 cells, which were induced to express ACSL4.
as §1

MCF-7 cells = assay: Growth response to estrogen, MCF-7 cells; assay type: cell-based, human; details: MCF-7 (ER-positive, ACSL4-negative), versus estrogen-free control, FIG. 5, FIG. 6A
Protocol: (§3) As indicated above in the results of Example 2, two cell lines which were ER-positive where also ACSL4-positive. A study comparing cell growth in the presence of estrogen of one of these cell lines (MDA-MB-415) to a cell line which is ER-positive and ACSL4 negative (MCF-7) was performed.
as §2

MDA-MB-415 cells = assay: Growth response to estrogen, MDA-MB-415 cells; assay type: cell-based, human; details: MDA-MB-415 (ER-positive, ACSL4-positive), versus control without estrogen, FIG. 5
Protocol: as §3

Q: With `CC/C(=C(\c1ccccc1)c1ccc(OCCN(C)C)cc1)c1ccccc1` [tamoxifen] as the molecule, how does the “sensitivity to tamoxifen treatment” value [1] read?
A: Its value is “decrease in the sensitivity”.

Q: Which results are given for `CCC/C=C/C/C=C/C=C/C=N/NN=O` [triacsin C]?
A: effect on the activity of ACSL5 (ACSL5): little or no effect; increase in triacsin C sensitivity on ablation of ACSL4 (MDA-MB-231 cells; ACSL4 knockdown versus control MDA-MB-231 cells): three-fold increase; pIC50 (MDA-MB-231 cells; MDA-MB-231 ACSL4 knockdown cells (ACSL4-siRNA)): 6.25; pIC50 (MDA-MB-231 cells; MDA-MB-231 control cells (control siRNA)): 5.80; inhibition of ACSL3 (ACSL3): specific for inhibition; apoptosis of cancer cells [2]: induce apoptosis; proliferation of cancer cells [2]: inhibit proliferation; effect on the activity of ACSL6 (ACSL6): little or no effect; inhibition of ACSL4 (ACSL4; Van Horn et al. 2005): specific for inhibition; relative sensitivity by reported half-maximal inhibitory concentration values (ACSL4; ranking among ACSL1, 3 and 4): least sensitive; inhibition of ACSL1 (ACSL1; Van Horn et al. 2005): specific for inhibition; relative sensitivity by reported half-maximal inhibitory concentration values (ACSL1; ranking among ACSL1, 3 and 4): most sensitive

Q: Which “growth response to estrogen” value [3] does the source give for estrogen here?
A: The value was “became unresponsive to the proliferative effect; also recorded: loss of responsiveness”.

Q: What about the “growth response to estrogen” value (MCF-7 cells) of the same molecule?
A: The value was “significant growth response; also recorded: proliferative growth effect”.

Q: What about the “growth response to estrogen” value (MDA-MB-415 cells) of the same molecule?
A: Its value is “no significant growth response; also recorded: no increase in cellular proliferation”.
